Marks after values point to notes of the source that are not given here.
Experiments:
[1] = Determination of lipophilicity by RP-18 HPLC retention (log k′g); type: physicochemical; settings: RP-18 reversed phase HPLC, gradient elution, ion pair chromatography with triethylammonium cation
Source text: Lipophilicity information is thus often only obtained by fragment analysis and corresponding calculations.
An established HPLC method, which is based on retention data on RP-18 reversed phase silica during gradient elution, was used for the determination of lipohilicity.
Instead of log P the method yields the descriptor log k′g, ranking analytes according to their lipophilicity on a logarithmic scale as well. Since charged molecules such as cyclic nucleotides have only hardly any retention on reversed phases, ion pair chromatography with the lipophilic triethylammonium cation is used.

[2] = system: primary rod-like cells derived from the rd1 mutant mouse; experiment: Primary rod-like cells: cell death by Ethidium Homodimer assay; settings: compared to Rp-8-Br-cGMPS and Rp-8-Br-PET-cGMPS; 0.1 μM and 1 μM, 24 hours (FIG. 2)
Procedure: Legend: Primary rod-like cells derived from the rd1 mutant mouse undergo spontaneous cell death 11 days after differentiation. Rod-like cells were exposed to compounds at day 10 of culture and analyzed 24 hours later. A.: 0.1 μM concentration of tested compounds. B.: 1 μM concentration of tested compounds. Percentage of dying cells was evaluated by Ethidium Homodimer assay. Untreated cells are shown as control sample (black bar). Reference compounds Rp-8-Br-cGMPS and Rp-8-Br-PET-cGMPS are shown as dashed bars. Data are shown as means±SD from at least three biological replicates.
Primary rod-like cells were obtained by isolating stem cells from the ciliary epithelium of murine eyes.^15 The cells are cultured until they form neurospheres in DMEM/F12 with FGF (20 ng/ml), Heparin (2 μg/ml), N2 (1x), Glucose (0.6%), HEPES (5 μM) and 1% Penicillin/Streptomycin. Single neurospheres are picked and plated onto glass slides coated with ECM in the same medium as before with the exception of reduced FGF concentration (10 ng/ml) to induce adhesion. […] To assess cell death, microphotographs were taken from three different slides for each compound concentration and the total number of cells, as well as the number of dying Ethidium Homodimer positive cells, were counted in each picture. […]

[3] = system: photoreceptors of rd1 explants; experiment: Retinal explants: photoreceptor cell death by TUNEL stain; type: cell-based, mouse; settings: 50 μM
Procedure: Legend: The animals at the age of postnatal day 5 (PN5) were killed by decapitation and retinas were dissected out with retinal pigment epithelium attached as described previously.^9 The retinas were flattened out on the membranes of commercially available 6-well culture inserts, after which 1.5 ml of a custom made culturing medium was added to each well. These explants were then kept in culture for two days without any treatment after which the test analogue of the invention at the desired concentration was added at a medium change at PN7 (“7” in Figure). There was then a new medium change at PN9 (“9” in Figure), with same concentration of analogue of the invention, upon which the cultures were kept until PN11 (“11” in Figure). At this time point the experiment was finished by a fixation procedure. This paradigm is therefore called PN5+2+4. […]
Legend: Effects of selected analogues at given concentrations of the invention on the cell death of photoreceptors of rd1 explants. The cell death was assessed by so called TUNEL stain on fixated and sectioned material, after which the number of dying cells was counted and analysed, and compared with that from untreated rd1 explants. In order to allow more direct comparisons between the different analogues and concentrations a ratio of treated/untreated specimens was calculated. […]

O=c1c2nc(Br)n([C@@H]3O[C@@H]4CO[P@@](=O)(S)O[C@H]4[C@H]3O)c2nc2[nH]c(-c3ccc4ccccc4c3)cn12 (single isomer, unassigned) [Compound 24, 8-Bromo-(2-naphthyl-1,N^2-etheno)guanosine-3′,5′-cyclic monophosphorothioate, Rp-isomer]
log k′g [1]: 3.426

O=C(CSc1nc2c(=O)n3cc(-c4ccccc4)[nH]c3nc2n1[C@@H]1O[C@@H]2COP(O)(=S)O[C@H]2[C@H]1O)Nc1ccccc1 (single isomer, unassigned) [Compound 33, β-Phenyl-1,N^2-etheno-8-phenylamidomethylthioguanosine-3′,5′-cyclic monophosphorothioate, Rp-isomer]
log k′g [1]: 3.411

O=c1c2nc(Br)n([C@@H]3O[C@@H]4CO[P@@](O)(=S)O[C@H]4[C@H]3O)c2nc2[nH]c(-c3ccccc3)cn12 [C, Rp-8-Br-PET-cGMPS, reference compound]
log k′g [1]: 2.831

O=C(CSc1nc2c(=O)n3cc(-c4ccccc4)[nH]c3nc2n1[C@@H]1O[C@@H]2COP(O)(=S)O[C@H]2[C@H]1O)NCCOCCOCCOCCOCCOCCOCCOCCOCCNC(=O)CSc1nc2c(=O)n3cc(-c4ccccc4)[nH]c3nc2n1[C@@H]1O[C@@H]2COP(O)(=S)O[C@H]2[C@H]1O (stereo partly drawn) [Compound 2, β-Phenyl-1,N^2-ethenoguanosine-3′,5′-cyclic monophosphorothioate[Rp]-[8-thiomethylamido-(octaethoxy)-ethylamidomethylthio-8]-β-phenyl-1,N^2-ethenoguanosine-3′,5′-cyclic monophosphorothioate[Rp]]
log k′g [1]: 3.236* | protective effect against cell death in primary rod-like cells [2]: significantly improved potencies to prevent cell death

Nc1nc2c(nc(SCC(=O)Nc3ccccc3)n2[C@@H]2O[C@@H]3COP(O)(=S)O[C@H]3[C@H]2O)c(=O)[nH]1 (single isomer, unassigned) [Compound 31, 8-Phenylamidomethylthioguanosine-3′,5′-cyclic monophosphorothioate, Rp-isomer]
log k′g [1]: 2.105

Cc1ccc(-c2cn3c(=O)c4nc(Br)n([C@@H]5O[C@@H]6COP(O)(=S)O[C@H]6[C@H]5O)c4nc3[nH]2)cc1 (single isomer, unassigned) [Compound 22, 8-Bromo-(4-methyl-β-phenyl-1,N^2-etheno)guanosine-3′,5′-cyclic monophosphorothioate, Rp-isomer]
log k′g [1]: 3.134

O=c1c2nc(Br)n(C3OC4COP(O)(=S)OC4C3O)c2nc2[nH]c(-c3ccsc3)cn12 (centres unmarked) [Compound 23, 8-Bromo-(3-thiophen-yl-1, N^2-etheno)guanosine-3′, 5′-cyclic monophosphorothioate]
log k′g [1]: 2.746

Nc1nc2c(ncn2[C@@H]2O[C@@H]3COP(O)(=S)O[C@H]3[C@H]2O)c(=O)[nH]1 (some centres unmarked) [A, Rp-cGMPS, reference compound]
log k′g [1]: 0.894

Nc1nc2c(nc(SCC(=O)NCCOCCOCCOCCOCCOCCOCCOCCOCCNC(=O)CSc3nc4c(=O)[nH]c(N)nc4n3[C@@H]3O[C@@H]4COP(O)(=S)O[C@H]4[C@H]3O)n2[C@@H]2O[C@@H]3COP(O)(=S)O[C@H]3[C@H]2O)c(=O)[nH]1 (some centres unmarked) [Compound 1, Guanosine-3′,5′-cyclic monophosphorothioate[Rp]-[8-thiomethylamido-(octaethoxy)-ethylamidomethylthio-8]-guanosine-3′,5′-cyclic monophosphorothioate[Rp]]
log k′g [1]: 2.039* | protective effect against cell death in primary rod-like cells [2]: significantly improved potencies to prevent cell death

Nc1nc2c(nc(Sc3ccccc3N)n2[C@@H]2O[C@@H]3CO[P@@](=O)(S)O[C@H]3[C@H]2O)c(=O)[nH]1 (single isomer, unassigned) [Compound 30, 8-(2-Aminophenylthio)guanosine-3′,5′-cyclic monophosphorothioate, Rp-isomer]
log k′g [1]: 1.974

O=c1c2nc(Sc3ccc(O)cc3)n([C@@H]3O[C@@H]4COP(O)(=S)O[C@H]4[C@H]3O)c2nc2[nH]c(-c3ccccc3)cn12 (single isomer, unassigned) [Compound 34, 8-(4-Hydroxyphenylthio)-β-phenyl-1,N^2-ethenoguanosine-3′,5′-cyclic monophosphorothioate, Rp-isomer]
log k′g [1]: 3.078

Nc1nc2c(nc(Br)n2[C@@H]2O[C@@H]3COP(O)(=S)O[C@H]3[C@H]2O)c(=O)[nH]1 (some centres unmarked) [B, Rp-8-Br-cGMPS, reference compound]
log k′g [1]: 1.285

O=c1c2nc(Br)n([C@@H]3O[C@@H]4CO[P@@](O)(=S)O[C@H]4[C@H]3O)c2nc2[nH]c(-c3ccccc3)cn12 [Rp-8-Br-PET-cGMPS]
photoreceptor cell death, ratio of treated/untreated specimens ([3]; PN5+2+4 paradigm, TUNEL stain, untreated = 1.0): about 0.78 | reduction of photoreceptor cell death ([3]; versus untreated): more than 20%

Nc1nc2c(ncn2[C@@H]2O[C@@H]3COP(=O)(O)O[C@H]3[C@H]2O)c(=O)[nH]1 [cGMP, guanosine-3′,5′-cyclic monophosphate, reference compound]
log k′g [1]: 0.77
